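Assay format: 96-well plates, 48-hour exposure. GI50: concentration for 50% inhibition of growth.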 Activity calls are given as the source filed them. Rule as the data show it: active = GI50 up to about 1.1 µM and inactive = higher. A value given as a limit tells only on which side of the number the result lay.

Among the test systems are HOP-92; DU-145; COLO 205; HT-29; Malme-3M; SK-MEL-2; Hs-578T; OVCAR-4; NCI-H23; HCT-116; CAKI-1; U-251; 786-0; NCI/ADR-RES; UACC-257; MDA-MB-435; SNB-75.
What all share (experiment): DTP human tumour cell line panel, 48 h

Consider `O=C1CSC(c2ccccc2[N+](=O)[O-])N1c1ccc(-c2ccc(-n3c(-c4ccccc4)nc4ccccc4c3=O)cc2)cc1` (stereo not drawn), for which the GI50 in the assay on HOP-92 was 46.6 µM (inactive); in the assay on DU-145, > 100 µM (inactive); with COLO 205, > 100 µM (inactive); in the assay on HT-29 it was 62.2 µM (inactive); in the assay with Malme-3M, > 100 µM (inactive); in the assay on SK-MEL-2, > 100 µM (inactive). In addition, the GI50 in the assay with Hs-578T was > 100 µM (inactive); in the assay on OVCAR-4, 75.5 µM (inactive); in the assay with NCI-H23, > 10 µM (inactive); in the assay on HCT-116 it was 82.6 µM (inactive); with CAKI-1, > 100 µM (inactive); in the assay with U-251, 42.6 µM (inactive). Further, the GI50 in the assay with 786-0 was > 100 µM (inactive); with NCI/ADR-RES, 86.5 µM (inactive); in the assay with UACC-257, > 100 µM (inactive); in the assay on MDA-MB-435 it was > 100 µM (inactive); in the assay on SNB-75 it was 18.4 µM (inactive).
Turning to `Cn1cc2c3ccccc3nc-2c2ccccc21` [ISOCRYPTOLEPINE], the GI50 is 1.91 µM (inactive) in the assay with HOP-92; 2.31 µM (inactive) in the assay with DU-145; 1.46 µM (inactive) in the assay with COLO 205; 1.29 µM (inactive) with HT-29; 2.28 µM (inactive) in the assay on Malme-3M; 1.91 µM (inactive) with SK-MEL-2. Moreover, the GI50 was 2.3 µM (inactive) with Hs-578T; 1.92 µM (inactive) in the assay on OVCAR-4; 1.51 µM (inactive) with NCI-H23; 1 µM (active) in the assay with HCT-116; 2.32 µM (inactive) in the assay with CAKI-1; 2.42 µM (inactive) in the assay on U-251. Further, the GI50 was 2.1 µM (inactive) with 786-0; 1.72 µM (inactive) in the assay with NCI/ADR-RES; 2.31 µM (inactive) in the assay with UACC-257; 2.39 µM (inactive) with MDA-MB-435; 1.8 µM (inactive) in the assay with SNB-75.
Take `Cc1nc(Nc2nc3ccccc3[nH]2)nc(Cl)c1CCCl`: the GI50 in the assay with HOP-92 is < 0.01 µM (active); with DU-145 it was > 100 µM (inactive); with COLO 205, > 100 µM (inactive); in the assay with HT-29, > 100 µM (inactive); with Malme-3M, > 100 µM (inactive); in the assay on SK-MEL-2 it was > 100 µM (inactive). In addition, the GI50 in the assay on Hs-578T is 83.8 µM (inactive); in the assay on OVCAR-4 it was > 100 µM (inactive); in the assay with NCI-H23 it was > 100 µM (inactive); in the assay with HCT-116 it was > 100 µM (inactive); with CAKI-1, > 100 µM (inactive); with U-251, 49 µM (inactive). Besides, the GI50 in the assay on 786-0 was > 100 µM (inactive); in the assay with NCI/ADR-RES it was > 100 µM (inactive); with UACC-257, > 100 µM (inactive); in the assay with MDA-MB-435, > 100 µM (inactive); in the assay on SNB-75, 89.3 µM (inactive).
Take `COc1ccc(N2C(=O)C3c4[nH]c5cccc(Cl)c5c4C4CCC(C(C)(C)C)CC4C3C2=O)cc1` (stereo not drawn): the GI50 in the assay on HOP-92 was 83.2 µM (inactive); in the assay on DU-145 it was > 100 µM (inactive); in the assay on COLO 205, > 100 µM (inactive); in the assay on HT-29 it was > 100 µM (inactive); in the assay on Malme-3M, > 100 µM (inactive); with SK-MEL-2, 94.6 µM (inactive). Further, the GI50 in the assay with Hs-578T is 21.9 µM (inactive); with OVCAR-4, > 100 µM (inactive); in the assay on NCI-H23, > 100 µM (inactive); in the assay with HCT-116, > 100 µM (inactive); with CAKI-1 it was > 100 µM (inactive); with U-251, 39.2 µM (inactive). Also, the GI50 with 786-0 was 31.6 µM (inactive); in the assay on NCI/ADR-RES, > 100 µM (inactive); in the assay on UACC-257, > 100 µM (inactive); in the assay with MDA-MB-435, > 100 µM (inactive); in the assay on SNB-75, 19.1 µM (inactive).

In general, GI50 refers to the concentration that inhibits growth by half.

Source of the values: ChEMBL document CHEMBL1201862, “PubChem BioAssay data set” (2004).
